Each structure is given as a SMILES string.

In the assay the target is Carbonic anhydrase 2 (Homo sapiens, UniProt P00918). Kind of assay: Then 30 μL of 16 nM hCA II solution was added (8 nM final concentration), mixed five times. 30 μL of 4-NPA substrate solution was added (2.5 mM final concentration), mixed five times.

Turning to `NS(=O)(=O)c1ccc(C(=O)N2C[C@H]3CN(C(=O)/C=C/c4ccc(OC(F)(F)F)cc4)C[C@]3(F)C2)c(F)c1` (relative stereo), inhibition was half-maximal at 6 nM (IC50).

(Values after ChEMBL document CHEMBL5727886, “Bicyclic compounds as dual ATX/CA inhibitors” (2020).)
